Key:
[1] = target: GDP-bound KRAS wild-type protein (Homo sapiens, UniProt P01116); assay: Binding to KRAS by surface plasmon resonance (SPR), Single Cycle Kinetics; conditions: SPR, Single Cycle Kinetics, GDP-bound KRAS wild-type protein; read-out: KRAS KD
[2] = target: GDP-bound NRAS wild-type protein (Homo sapiens, UniProt P01111); assay: Binding to NRAS by surface plasmon resonance (SPR), Single Cycle Kinetics; conditions: SPR, GDP-bound NRAS wild-type protein vs GDP-bound KRAS wild-type protein
[3] = target: GDP-bound HRAS wild-type protein (Homo sapiens, UniProt P01112); assay: Binding to HRAS by surface plasmon resonance (SPR), Single Cycle Kinetics; conditions: SPR, GDP-bound HRAS wild-type protein vs GDP-bound KRAS wild-type protein
Chain of GDP-bound HRAS wild-type protein (P01112 whole entry): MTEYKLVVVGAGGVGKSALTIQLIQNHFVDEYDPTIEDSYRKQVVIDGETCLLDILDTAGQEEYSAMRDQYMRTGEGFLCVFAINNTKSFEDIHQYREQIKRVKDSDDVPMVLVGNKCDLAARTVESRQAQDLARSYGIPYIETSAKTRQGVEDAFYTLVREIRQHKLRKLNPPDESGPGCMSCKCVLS

Chain of GDP-bound KRAS wild-type protein (P01116 whole entry): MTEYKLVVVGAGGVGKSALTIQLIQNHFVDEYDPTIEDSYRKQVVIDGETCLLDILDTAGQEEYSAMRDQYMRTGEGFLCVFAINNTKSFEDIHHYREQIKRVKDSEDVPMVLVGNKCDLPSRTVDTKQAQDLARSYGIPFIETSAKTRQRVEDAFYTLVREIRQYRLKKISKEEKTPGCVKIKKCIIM
Chain of GDP-bound NRAS wild-type protein (P01111 whole entry): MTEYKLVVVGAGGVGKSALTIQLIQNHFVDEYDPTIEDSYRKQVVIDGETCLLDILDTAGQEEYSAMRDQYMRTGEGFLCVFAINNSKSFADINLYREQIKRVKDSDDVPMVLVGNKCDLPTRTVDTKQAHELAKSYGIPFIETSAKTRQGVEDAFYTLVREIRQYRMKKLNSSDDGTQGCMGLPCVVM

Row | Structure (SMILES) | Kd [1] [nM] | NRAS/KRAS (ratio of KD value for NRAS to KD value for KRAS) [2] | HRAS/KRAS (ratio of KD value for HRAS to KD value for KRAS) [3]
1 | CCO[C@@H]1C[C@H]2C(=O)NC3(CC(F)(F)C3)C(=O)N(C)[C@@H](C3CCCC3)C(=O)N(C)[C@H](C(=O)N3CCOCC3)CC(=O)N(C)[C@@H](CC(C)C)C(=O)N[C@@H]([C@@H](C)CC)C(=O)N(C)CC(=O)N(C)[C@H]3C[C@H]4C[C@H]4CN(C3=O)[C@@H](Cc3ccc(C(F)(F)F)cc3)C(=O)N(C)CC(=O)N[C@@H](CCc3cc(F)c(C(F)(F)F)c(F)c3)C(=O)N2C1 [PP0831] | 0.32 | C (A compound having a KD ratio of 0.1 or more and less than 3 is denoted as C) | C (A compound having a KD ratio of 0.1 or more and less than 3 is denoted as C)
2 | CCO[C@@H]1C[C@H]2C(=O)NC3(CCC3)C(=O)N(C)[C@@H](C3CCCC3)C(=O)N(C)[C@H](C(=O)N3CCOCC3)CC(=O)N(C)[C@@H](CC(C)C)C(=O)N[C@@H]([C@@H](C)CC)C(=O)N(C)CC(=O)N(C)[C@H]3CC=CCN(C3=O)[C@@H](Cc3ccc(C(F)(F)F)cc3)C(=O)N(C)CC(=O)N[C@@H](CCc3cc(F)c(C(F)(F)F)c(F)c3)C(=O)N2C1 [PP0832] | 0.21 | C (A compound having a KD ratio of 0.1 or more and less than 3 is denoted as C) | C (A compound having a KD ratio of 0.1 or more and less than 3 is denoted as C)
3 | CC[C@H](C)[C@@H]1NC(=O)[C@H](COC)N(C)C(=O)C[C@@H](C(=O)N2CCOCC2)N(C)C(=O)[C@H](C2CCCC2)N(C)C(=O)C2(CCC2)NC(=O)[C@@H]2C[C@H](OC)CN2C(=O)[C@H](CCc2cc(F)c(C(F)(F)F)c(F)c2)NC(=O)CN(C)C(=O)[C@H](Cc2ccc(C(F)(F)F)cc2)N2CCCCC[C@@H](C2=O)N(C)C(=O)CN(C)C1=O [PP0836] | 0.63 | B (a compound having 3 or more and less than 10 is denoted as B) | B (a compound having 3 or more and less than 10 is denoted as B)
4 | CC[C@H](C)[C@@H]1NC(=O)[C@H](COC)N(C)C(=O)C[C@@H](C(=O)N2CCOCC2)N(C)C(=O)[C@H](C2CCCC2)N(C)C(=O)C2(CCC2)NC(=O)[C@@H]2C[C@@H](OC)CN2C(=O)[C@H](CCc2cc(F)c(C(F)(F)F)c(F)c2)NC(=O)CN(C)C(=O)[C@H](Cc2ccc(C(F)(F)F)cc2)N2CCCCC[C@@H](C2=O)N(C)C(=O)CN(C)C1=O [PP0837] | 0.19 | B (a compound having 3 or more and less than 10 is denoted as B) | B (a compound having 3 or more and less than 10 is denoted as B)
5 | CCCO[C@@H]1C[C@H]2C(=O)NC3(CCC3)C(=O)N(C)[C@@H](C3CCCC3)C(=O)N(C)[C@H](C(=O)N3CCOCC3)CC(=O)N(C)[C@@H](COC)C(=O)N[C@@H]([C@@H](C)CC)C(=O)N(C)CC(=O)N(C)[C@H]3CCCCCN(C3=O)[C@@H](Cc3ccc(C(F)(F)F)cc3)C(=O)N(C)CC(=O)N[C@@H](CCc3cc(F)c(C(F)(F)F)c(F)c3)C(=O)N2C1 [PP0838] | 0.53 | B (a compound having 3 or more and less than 10 is denoted as B) | B (a compound having 3 or more and less than 10 is denoted as B)
6 | CC[C@H](C)[C@@H]1NC(=O)[C@H](COC)N(C)C(=O)C[C@@H](C(=O)N2CCOCC2)N(C)C(=O)[C@H](C2CCCC2)N(C)C(=O)C2(CCC2)NC(=O)[C@@H]2C[C@@H](OCC(C)C)CN2C(=O)[C@H](CCc2cc(F)c(C(F)(F)F)c(F)c2)NC(=O)CN(C)C(=O)[C@H](Cc2ccc(C(F)(F)F)cc2)N2CCCCC[C@@H](C2=O)N(C)C(=O)CN(C)C1=O [PP0839] | 1.1 | B (a compound having 3 or more and less than 10 is denoted as B) | B (a compound having 3 or more and less than 10 is denoted as B)
7 | CC[C@H](C)[C@@H]1NC(=O)[C@H](COC)N(C)C(=O)C[C@@H](C(=O)N2CCOCC2)N(C)C(=O)[C@H](C2CCCC2)N(C)C(=O)C2(CCC2)NC(=O)[C@@H]2CCN2C(=O)[C@H](CCc2cc(F)c(C(F)(F)F)c(F)c2)NC(=O)CN(C)C(=O)[C@H](Cc2ccc(C(F)(F)F)cc2)N2CCCCC[C@@H](C2=O)N(C)C(=O)CN(C)C1=O [PP0840] | 5 | B (a compound having 3 or more and less than 10 is denoted as B) | B (a compound having 3 or more and less than 10 is denoted as B)
8 | CCO[C@@H]1C[C@H]2C(=O)NC3(CCCC3)C(=O)N(C)[C@@H](C3CCCC3)C(=O)N(C)[C@H](C(=O)N3CCOCC3)CC(=O)N(C)[C@@H](COC)C(=O)N[C@@H]([C@@H](C)CC)C(=O)N(C)CC(=O)N(C)[C@H]3CCCCCN(C3=O)[C@@H](Cc3ccc(C(F)(F)F)cc3)C(=O)N(C)CC(=O)N[C@@H](CCc3cc(F)c(C(F)(F)F)c(F)c3)C(=O)N2C1 [PP0841] | 0.73 | B (a compound having 3 or more and less than 10 is denoted as B) | B (a compound having 3 or more and less than 10 is denoted as B)
9 | CCO[C@@H]1C[C@H]2C(=O)NC3(CC=CC3)C(=O)N(C)[C@@H](C3CCCC3)C(=O)N(C)[C@H](C(=O)N3CCOCC3)CC(=O)N(C)[C@@H](COC)C(=O)N[C@@H]([C@@H](C)CC)C(=O)N(C)CC(=O)N(C)[C@H]3CCCCCN(C3=O)[C@@H](Cc3ccc(C(F)(F)F)cc3)C(=O)N(C)CC(=O)N[C@@H](CCc3cc(F)c(C(F)(F)F)c(F)c3)C(=O)N2C1 [PP0842] | 0.6 | B (a compound having 3 or more and less than 10 is denoted as B) | B (a compound having 3 or more and less than 10 is denoted as B)
10 | CCO[C@@H]1C[C@H]2C(=O)NC3(CC(F)(F)C3)C(=O)N(C)[C@@H](C3CCCC3)C(=O)N(C)[C@H](C(=O)N3CCOCC3)CC(=O)N(C)[C@@H](COC)C(=O)N[C@@H]([C@@H](C)CC)C(=O)N(C)CC(=O)N(C)[C@H]3CCCCCN(C3=O)[C@@H](Cc3ccc(C(F)(F)F)cc3)C(=O)N(C)CC(=O)N[C@@H](CCc3cc(F)c(C(F)(F)F)c(F)c3)C(=O)N2C1 [PP0843] | 0.52 | B (a compound having 3 or more and less than 10 is denoted as B) | B (a compound having 3 or more and less than 10 is denoted as B)
11 | CCO[C@@H]1C[C@H]2C(=O)NC3(CC(C)(C)C3)C(=O)N(C)[C@@H](C3CCCC3)C(=O)N(C)[C@H](C(=O)N3CCOCC3)CC(=O)N(C)[C@@H](COC)C(=O)N[C@@H]([C@@H](C)CC)C(=O)N(C)CC(=O)N(C)[C@H]3CCCCCN(C3=O)[C@@H](Cc3ccc(C(F)(F)F)cc3)C(=O)N(C)CC(=O)N[C@@H](CCc3cc(F)c(C(F)(F)F)c(F)c3)C(=O)N2C1 [PP0844] | 1.2 | B (a compound having 3 or more and less than 10 is denoted as B) | B (a compound having 3 or more and less than 10 is denoted as B)
12 | CC[C@H](C)[C@@H]1NC(=O)[C@H](COC)N(C)C(=O)C[C@@H](C(=O)N2CCOCC2)N(C)C(=O)[C@H](C2CCCC2)N(C)C(=O)C2(CCCC2)NC(=O)[C@@H]2CCCN2C(=O)[C@H](CCc2cc(F)c(C(F)(F)F)c(F)c2)NC(=O)CN(C)C(=O)[C@H](Cc2ccc(C(F)(F)F)cc2)N2CCCCC[C@@H](C2=O)N(C)C(=O)CN(C)C1=O [PP0845] | 2.2 | B (a compound having 3 or more and less than 10 is denoted as B) | B (a compound having 3 or more and less than 10 is denoted as B)
13 | CC[C@H](C)[C@@H]1NC(=O)[C@H](COC)N(C)C(=O)C[C@@H](C(=O)N2CCOCC2)N(C)C(=O)[C@H](C2CCCC2)N(C)C(=O)C2(CCCC2)NC(=O)[C@@H]2CC(F)(F)CN2C(=O)[C@H](CCc2cc(F)c(C(F)(F)F)c(F)c2)NC(=O)CN(C)C(=O)[C@H](Cc2ccc(C(F)(F)F)cc2)N2CCCCC[C@@H](C2=O)N(C)C(=O)CN(C)C1=O [PP0846] | 0.99 | B (a compound having 3 or more and less than 10 is denoted as B) | B (a compound having 3 or more and less than 10 is denoted as B)
14 | CC[C@H](C)[C@@H]1NC(=O)[C@H](COC)N(C)C(=O)C[C@@H](C(=O)N2CCOCC2)N(C)C(=O)[C@H](C2CCCC2)N(C)C(=O)C2(CCCC2)NC(=O)[C@@H]2C[C@H](O)CN2C(=O)[C@H](CCc2cc(F)c(C(F)(F)F)c(F)c2)NC(=O)CN(C)C(=O)[C@H](Cc2ccc(C(F)(F)F)cc2)N2CCCCC[C@@H](C2=O)N(C)C(=O)CN(C)C1=O [PP0847] | 0.28 | B (a compound having 3 or more and less than 10 is denoted as B) | B (a compound having 3 or more and less than 10 is denoted as B)
15 | CCO[C@@H]1C[C@H]2C(=O)NC3(CCC3)C(=O)N(C)[C@@H](C3CCCC3)C(=O)N(C)[C@H](C(=O)N3CCOCC3)CC(=O)N(C)[C@@H](COC)C(=O)N[C@@H]([C@@H](C)CC)C(=O)N(C)CC(=O)N(C)[C@H]3CCCCCN(C3=O)[C@@H](Cc3ccc(C(F)(F)F)cc3)C(=O)N(C)CC(=O)N[C@@H](CCc3ccc(C(F)(F)F)c(F)c3)C(=O)N2C1 [PP0848] | 0.57 | B (a compound having 3 or more and less than 10 is denoted as B) | B (a compound having 3 or more and less than 10 is denoted as B)
